Measurements reported in ChEMBL document CHEMBL1201862, “PubChem BioAssay data set” (2004).
Active and inactive are the calls of the source.

Assays:
[1] = target: T1, Hepatocyte nuclear factor 4-alpha (Homo sapiens, UniProt P41235); format: functional, cell-based;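 note: biochemical luminescence-based dose-response counterscreen measuring inhibition of HNF4 dimerization, run alongside a screen for blockers of ABHD5–perilipin-5 interaction; split luciferase complementation of HNF4 fusion proteins in cell lysate measuring dimerization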
T1 sequence (P41235 whole entry): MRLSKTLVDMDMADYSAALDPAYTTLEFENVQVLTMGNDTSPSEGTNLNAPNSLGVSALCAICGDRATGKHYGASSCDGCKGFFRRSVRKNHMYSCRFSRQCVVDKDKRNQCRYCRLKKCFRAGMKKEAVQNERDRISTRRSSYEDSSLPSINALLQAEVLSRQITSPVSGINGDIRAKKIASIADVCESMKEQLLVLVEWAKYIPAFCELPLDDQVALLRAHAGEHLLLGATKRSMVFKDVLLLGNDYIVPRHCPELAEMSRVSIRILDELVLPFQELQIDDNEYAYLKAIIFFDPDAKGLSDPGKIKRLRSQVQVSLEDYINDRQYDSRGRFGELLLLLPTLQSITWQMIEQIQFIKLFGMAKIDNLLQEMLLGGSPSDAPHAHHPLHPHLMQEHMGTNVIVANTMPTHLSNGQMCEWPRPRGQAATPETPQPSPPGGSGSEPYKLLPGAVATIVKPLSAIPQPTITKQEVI

[2] = growth suppression of beta-catenin-knockout colon cells, dose response, cell-based, HCT116, human colon tumor (AID 1045); format: functional;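 note: HCT116 colon tumor cells with beta catenin knocked out; cells exposed to compound for 60 hours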
[3] = target: T2, Carboxy-terminal domain RNA polymerase II polypeptide A small phosphatase 1 (Homo sapiens, UniProt Q9GZU7); experiment: inhibitors of CTDSP1, concentration-response testing, biochemical assay, absorbance-based, actives from ultra-high-throughput screening (AID 540297); format: functional
T2 sequence (Q9GZU7 whole entry): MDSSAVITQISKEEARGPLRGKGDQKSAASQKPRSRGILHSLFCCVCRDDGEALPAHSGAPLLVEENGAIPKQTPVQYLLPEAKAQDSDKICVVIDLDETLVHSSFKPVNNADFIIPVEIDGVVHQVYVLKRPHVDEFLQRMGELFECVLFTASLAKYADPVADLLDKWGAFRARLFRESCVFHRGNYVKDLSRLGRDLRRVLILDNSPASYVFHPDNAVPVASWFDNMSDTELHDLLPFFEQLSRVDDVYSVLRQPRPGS

[4] = target: T3, Low molecular weight phosphotyrosine protein phosphatase (Homo sapiens, UniProt P24666); format: functional; details: read-out: IC50_Mean;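 note: Dose-response confirmation assay measuring inhibition of LMPTP enzyme activity by fluorescence intensity read-out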
T3 sequence (P24666 whole entry): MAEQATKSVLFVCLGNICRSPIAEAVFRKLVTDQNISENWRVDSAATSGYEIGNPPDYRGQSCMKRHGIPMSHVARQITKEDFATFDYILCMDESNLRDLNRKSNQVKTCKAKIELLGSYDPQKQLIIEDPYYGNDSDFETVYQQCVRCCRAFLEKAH

[5] = growth suppression of PTEN-null colon cells, dose response, cell-based, HCT116 PTEN knockout (AID 1047); format: functional;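 note: HCT116 colon tumor cells with PTEN knocked out; cells exposed to compound for 60 hours before readout; potency for loss of cell viability measured by luminescence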
[6] = HepG2 cell cytotoxicity, dose response, cytotoxicity control, cherry-picked samples (AID 1159577); format: functional, cell-based
[7] = P. falciparum 3D7-ScDHODH growth inhibitors, dose response, SYBR Green, dry powder samples (AID 1159570); format: functional, cell-based;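 note: parasite growth measured after 72 hours of compound exposure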
[8] = P. falciparum Dd2 growth inhibitors, dose response, SYBR Green, cherry-picked samples (AID 1159567); format: functional, cell-based
[9] = P. falciparum ATP4 D1247Y mutant growth inhibitors, dose response, NITD609-resistant line, SYBR Green, dry powder (AID 1159571); format: functional, cell-based;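 note: parasites synchronized at ring stage by sorbitol before testing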
[10] = P. falciparum Dd2 growth inhibitors, dose response, SYBR Green, dry powder samples (AID 1159566); format: functional, cell-based;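 note: potency for growth inhibition with lower SYBR green DNA signal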
[11] = HepG2 cell cytotoxicity, dose response, cytotoxicity control, plate reader, dry powder samples (AID 1159569); format: functional, cell-based;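 note: inhibitor potency with signal falling toward the positive control level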

Question: For `Cc1cccc(C)c1NC(=O)C(c1ccccc1F)n1c(=O)c(-c2ccco2)nc2ccccc21` (stereo not given), which IC50 [1] is on record?
Answer: 2.48 µM (active)

Question: For `O=C(N/N=C/c1cccc([N+](=O)[O-])c1)c1cc2c(ccc3ccccc32)o1`, which EC50 [2] is on record?
Answer: 148 µM (active)

Question: And the IC50 [3]?
Answer: 3.91 µM (active)

Question: What about the IC50 [4] of the same compound?
Answer: 4.06 µM (active)

Question: What about the EC50 [5] of the same compound?
Answer: 52.6 µM (active)

Question: Which results are given for `COc1cccc(C#Cc2ccc([C@@H]3[C@@H](CO)N4C(=O)CN(C(=O)c5ccccc5)C[C@@H]34)cc2)c1`?
Answer: AC50 [6]: > 39 µM (inactive); AC50 [7]: 2.23 µM (active); AC50 [8]: 2.3 µM (active); AC50 [9]: 1.53 µM (active); AC50 [10]: 1.19 µM (active)

Question: With `CCCN1CCC2(CC1)CN(Cc1ccccc1OC)[C@H](CO)c1c2c2ccc(OC)cc2n1C` as the compound, how does the AC50 [11] read?
Answer: 25.7 µM (active)

Question: What about the AC50 [6] of the same compound?
Answer: > 39 µM (inactive)

Question: And the AC50 [7]?
Answer: 1.49 µM (active)

Question: And the AC50 [8]?
Answer: 2.22 µM (active)

Question: What about the AC50 [9] of the same compound?
Answer: 0.888 µM (active)

Question: And the AC50 [10]?
Answer: 0.681 µM (active)

Question: For `Cc1cccc(-c2ccc([C@@H]3[C@H](CO)N4CCCCN(S(=O)(=O)c5ccccc5C)C[C@@H]34)cc2)c1`, which AC50 [6] is on record?
Answer: 9.3 µM (active)

Question: And the AC50 [8]?
Answer: 0.845 µM (active)

Question: Which results are given for `CO[C@@H]1CN(C)C(=O)c2cc(NC(=O)c3nc4ccccc4s3)ccc2OC[C@@H](C)N(Cc2ccncc2)C[C@H]1C`?
Answer: AC50 [6]: 24.5 µM (active); AC50 [8]: 5.88 µM (active)

Question: Which AC50 [11] does the source give for `O=C(Nc1ccccc1)N1CCCCN2[C@H](CO)[C@H](c3ccc(C#Cc4ccccc4)cc3)[C@@H]2C1` here?
Answer: > 100 µM (inactive)

Question: What about the AC50 [7] of the same compound?
Answer: 0.0378 µM (active)

Question: And the AC50 [8]?
Answer: < 0.3 µM (active)

Question: And the AC50 [9]?
Answer: 0.0386 µM (active)

Question: What about the AC50 [10] of the same compound?
Answer: 0.0425 µM (active)
